What was measured:
[1] = Half life in human serum at 25 mg, qd; format: ADME, cell-free
[2] = target: T1, Human immunodeficiency virus type 1 reverse transcriptase (Human immunodeficiency virus 1, UniProt Q72547); test: Inhibition of HIV1 reverse transcriptase
[3] = target: T1, Human immunodeficiency virus type 1 reverse transcriptase; test: Inhibition of HIV1 reverse transcriptase derived from HIV patient plasma by LC/MS/MS analysis
[4] = target: Human immunodeficiency virus type 1 reverse transcriptase (Human immunodeficiency virus 1) (UniProt Q72547); test: Inhibition of HIV1 3B reverse transcriptase infected in human PBMC cells after 4 days; format: cell-based
[5] = target: T1, Human immunodeficiency virus type 1 reverse transcriptase; test: Inhibition of wild type recombinant HIV1 reverse transcriptase using poly(rA)-oligo(dT) as template/primer
[6] = Lipophilicity, log P of the compound; format: physicochemical; conditions: octanol/water
[7] = system: Human immunodeficiency virus 1; test: Antiviral activity against HIV1 subtype B; format: functional, organism-based; conditions: Human immunodeficiency virus 1, subtype B
[8] = Cmax in Beagle dog; format: ADME, Canis lupus familiaris; conditions: in vivo
[9] = Cmax in rat; format: ADME; conditions: in vivo
[10] = Tmax in rat; format: ADME; conditions: in vivo
[11] = Half life in human serum at 200 mg, bid; format: ADME, cell-free
[12] = target: Human immunodeficiency virus type 1 reverse transcriptase (Human immunodeficiency virus 1) (UniProt Q72547)
[13] = Half life in human serum at 400 mg, qd; format: ADME, cell-free
[14] = system: Human immunodeficiency virus 1; test: Antiviral activity against HIV1; format: functional, organism-based
[15] = system: Human immunodeficiency virus 1; test: Antiviral activity against HIV1 assessed as serum adjusted potency; format: functional, organism-based
[16] = Oral bioavailability in human; format: ADME, organism-based; conditions: in vivo
[17] = Half life in human serum at 600 mg, qd; format: ADME, cell-free
[18] = Half life in human serum at 100 mg, qd; format: ADME, cell-free

Cc1cc(/C=C/C#N)cc(C)c1Nc1ccnc(Nc2ccc(C#N)cc2)n1 [RILPIVIRINE]
half-life [1]: 50 h

CCOC1(c2ccccc2)c2cc(Cl)ccc2NC(=S)N1C (centres undefined)
IC50 [2]: 0.056 µM

O=C1Nc2cccnc2Nc2ccccc21
IC50 [3]: 6 µM

CCNc1cccnc1N1CCN(Cc2cc(C)c(OC)c(C)c2)CC1
ED50 [4]: 2 µM | IC50 [5]: 20 µM

CC(C)Nc1cccnc1N1CCN(C(=O)c2cc3cc(F)ccc3[nH]2)CC1
ED50 [4]: 0.3 µM

CCN1c2ncccc2C(=O)N(C)c2cccnc21
logP [6]: 1.84

NC(=O)c1[nH]c2cccc(Cl)c2c1S(=O)(=O)c1ccccc1
EC50 [7]: 1 µM

Cc1cc(/C=C/C#N)cc(F)c1Nc1cccc(Nc2ccc(C#N)cc2)n1
EC50 [7]: 5500 µM

CCNc1cccnc1N1CCN(C(=O)c2cc(C)c(OC)c(C)c2)CC1
logP [6]: 3.3 | ED50 [4]: 2 µM

O=S1(c2ccccc2)=NC(=S)Nc2ccccc21 (centres undefined)
IC50 [2]: 0.95 to 5.11 µM

CCNc1cccnc1N1CCN(C(=O)c2cc3cc(OC)ccc3[nH]2)CC1.CS(=O)(=O)O [ATEVIRDINE SULPHATE]
logP [6]: 1.28 | Cmax [8]: 16 to 33 µM | Cmax [9]: 4.6 to 17.4 µM | Tmax [10]: 0.5 to 1 h

CCN1c2ccccc2N(C)C(=O)c2cccnc21
logP [6]: 2.46

O=C1Nc2cccnc2Nc2ncccc21
logP [6]: 1.03

CC1O[C@](C#CC2CC2)(C(F)(F)F)c2cc(Cl)ccc2NC1=O (some centres undefined)
IC50 [2]: 0.082 µM

Cc1cc(C#N)cc(C)c1Oc1nc(Nc2ccc(C#N)cc2)nc(N)c1Br [ETRAVIRINE]
half-life [11]: 41 h

COc1ccc2[nH]c(C(=O)N3CCN(c4ncccc4NC(C)C)CC3)cc2c1
ED50 [4]: 0.3 µM

Cc1cn([C@H]2C[C@H](N=[N+]=[N-])[C@@H](CO)O2)c(=O)[nH]c1=O
ED50 [4]: 0.07 µM

O=C1Nc2ccc(Cc3ccccc3)cc2[C@@](C#CC2CC2)(C(F)(F)F)O1
IC90 [12]: 0.279 µM

CC(C)Nc1cccnc1N1CCN(C(=O)c2cc3cc(NS(C)(=O)=O)ccc3[nH]2)CC1 [DELAVIRDINE]
half-life [13]: 2 to 11 h

CC(C)Nc1cccnc1N1CCN(C(=O)c2cc3ccccc3[nH]2)CC1
ED50 [4]: 0.3 µM

Cc1cc(/C=C/C#N)cc(F)c1Nc1ccc(F)c(Nc2ccc(C#N)cc2)n1
EC50 [7]: 1000 µM

N#Cc1cc(Cl)cc(Oc2c(Br)ccc(CC(=O)Nc3ccc(S(N)(=O)=O)cc3Cl)c2F)c1 [DEPULFAVIRINE]
EC50 [14]: 0.0012 µM | EC50 [15]: 0.0138 µM

CCNc1cccnc1N1CCN(C(=O)c2cc3ccccc3[nH]2)CC1
ED50 [4]: 0.3 µM

Cc1ccnc2c1NC(=O)c1cccnc1N2
logP [6]: 1.52

CCN1c2ncccc2C(=O)Nc2c(C)ccnc21
logP [6]: 2.09

Cc1ccnc2c1NC(=O)c1cccnc1N2C1CC1 [NEVIRAPINE]
half-life [11]: 25 to 30 h | logP [6]: 2.05 | bioavailability [16]: 95%

O=C1Nc2ccc(Cl)cc2[C@@](C#CC2CC2)(C(F)(F)F)O1 [EFAVIRENZ]
half-life [17]: 40 to 55 h

CC1O[C@](/C=C/C2CC2)(C(F)(F)F)c2cc(Cl)ccc2NC1=O (some centres undefined)
IC50 [2]: 0.046 µM

Cn1c(Cn2ccc(C(F)(F)F)c(Oc3cc(Cl)cc(C#N)c3)c2=O)n[nH]c1=O [DORAVIRINE]
half-life [18]: 11 to 15 h

O=C1Nc2ccccc2Nc2ncccc21
logP [6]: 1.65

NC(=O)c1[nH]c2ccccc2c1S(=O)(=O)c1ccccc1
EC50 [7]: 180 µM
